Test results from article PMC11949107, “Polyunsaturated fatty acids and their endocannabinoid-related metabolites activity at human TRPV1 and TRPA1 ion channels expressed in HEK-293 cells” (PeerJ, 2025).
Values joined by “and” are separate entries in the source; they are usually repeats but may differ in a detail not shown here. Equal values may be shown once.

Tests used:
human TRPV1 = biological target: T1, human TRPV1 (Homo sapiens, UniProt Q8NER1); assay: Calcium 5 dye [Ca]i assay in HEK-293 Flp-In T-REx cells expressing TRPV1 (agonist response); type: cell-based; conditions: for Change in Ca5 fluorescence, individual experiments (CRC raw data): TRPV1 cells
T1 construct: Life Technologies (cells); host or cells: Flp-In T-REx HEK-293
Procedure: (§1) The cells were incubated in a 5% CO2 humidified atmosphere at 37 °C. Upon reaching approximately 90% confluence in 75 cm^2 flasks, they were trypsinized and transferred to poly-D-lysine coated 96-well plates (Corning, Castle Hill, NSW, Australia) in L-15 medium supplemented with 1% FBS, 100 U penicillin and 100 µg streptomycin ml^−1 (1% P/S), and 15 mM glucose (80 µL volume per well). After an overnight incubation (maximum of 16 h) in humidified room air at 37 °C, TRPV1 and TRPA1 receptor expression was induced 4 h before experimentation by adding to each well 10 µL tetracycline solution to a final concentration of 1 µg ml^−1.
(§2) Intracellular calcium [Ca]i levels were assessed using the calcium 5 kit from Molecular Devices (# R8186, Sunnyvale, CA, USA) on a FlexStation 3 Microplate Reader (Molecular Devices, Sunnyvale, CA, USA). […] Probenecid (cat # 50027; Biotium) which helps to prevent expulsion of calcium indicator from the cells was added to a final concentration of 1.25 mM. 90 µL of the dye were loaded into each well of the plate and incubated for 1 h before reading in the FlexStation 3 at 37 °C. Fluorescence was recorded every 2 s (λ excitation = 485 nm, λ emission = 525 nm) for 5 min. After 1 min of baseline recording, 20 µL of the drug, dissolved in HBSS with 1% dimethyl sulfoxide (DMSO) (cat # D2650; Sigma-Aldrich, Melbourne, Australia) was added (final DMSO concentration was 0.1% in well).
(§3) The response to agonists was expressed as a percentage change from the average baseline measurement taken for 60s before adding drug. Changes in fluorescence resulting from the addition of solvent were subtracted before normalization to baseline. Concentration–response curves (CRC), Emax and EC50 values were determined using a three-parameter logistic equation (GraphPad Prism, San Diego, CA, USA). […] Potencies were expressed as pEC50, which is the negative log of EC50 in moles per litre (Molar). Where appropriate, unpaired Student’s t-test were used to compare the responses of individual compounds in different conditions, while a one-way ANOVA followed by Dunnett’s multiple comparisons test was used to assess potential differences in responses elicited by a range of compounds. P < 0.05 was considered statistically significant.

human TRPA1 = biological target: T2, human TRPA1 (Homo sapiens, UniProt O75762); assay: Calcium 5 dye [Ca]i assay in HEK-293 Flp-In T-REx cells expressing TRPA1 (agonist response); type: cell-based; conditions: for Change in Ca5 fluorescence, individual experiments (CRC raw data): TRPA1 cells
T2 construct: Life Technologies (cells); host or cells: Flp-In T-REx HEK-293
Procedure: as §1, §2, §3

HEK-293 EV cells = assay: Calcium 5 dye [Ca]i assay in HEK-293 empty vector (EV) cells; type: cell-based, human; conditions: 10 µM; HEK-293 EV cells; percentage of predrug baseline
Procedure: as §1
Intracellular calcium [Ca]i levels were assessed using the calcium 5 kit from Molecular Devices (# R8186, Sunnyvale, CA, USA) on a FlexStation 3 Microplate Reader (Molecular Devices, Sunnyvale, CA, USA). […] 90 µL of the dye were loaded into each well of the plate and incubated for 1 h before reading in the FlexStation 3 at 37 °C. […] After 1 min of baseline recording, 20 µL of the drug, dissolved in HBSS with 1% dimethyl sulfoxide (DMSO) (cat # D2650; Sigma-Aldrich, Melbourne, Australia) was added (final DMSO concentration was 0.1% in well).
as §3

T1 sequence (Q8NER1 whole entry): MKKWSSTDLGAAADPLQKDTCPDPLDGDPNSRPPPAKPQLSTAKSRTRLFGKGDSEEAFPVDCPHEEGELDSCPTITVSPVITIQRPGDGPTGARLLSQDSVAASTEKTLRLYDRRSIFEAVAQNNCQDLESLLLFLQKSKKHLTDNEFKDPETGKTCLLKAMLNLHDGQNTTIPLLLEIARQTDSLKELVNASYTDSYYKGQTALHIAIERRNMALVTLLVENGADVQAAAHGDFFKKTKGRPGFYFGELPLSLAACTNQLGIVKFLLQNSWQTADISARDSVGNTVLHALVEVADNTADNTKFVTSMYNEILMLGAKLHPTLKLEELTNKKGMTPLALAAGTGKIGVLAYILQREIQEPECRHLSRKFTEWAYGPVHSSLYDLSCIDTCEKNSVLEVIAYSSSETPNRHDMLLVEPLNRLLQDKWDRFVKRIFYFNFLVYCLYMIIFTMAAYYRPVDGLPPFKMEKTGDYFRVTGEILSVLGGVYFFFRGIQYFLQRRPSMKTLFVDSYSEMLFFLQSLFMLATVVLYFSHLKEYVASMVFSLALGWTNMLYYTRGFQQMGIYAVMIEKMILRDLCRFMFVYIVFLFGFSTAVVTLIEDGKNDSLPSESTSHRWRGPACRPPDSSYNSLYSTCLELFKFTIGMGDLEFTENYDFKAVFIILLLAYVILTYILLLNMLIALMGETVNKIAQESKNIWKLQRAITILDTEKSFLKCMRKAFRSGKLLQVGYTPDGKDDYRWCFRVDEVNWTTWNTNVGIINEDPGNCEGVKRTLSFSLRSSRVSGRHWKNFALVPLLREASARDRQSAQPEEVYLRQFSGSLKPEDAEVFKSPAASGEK
T2 sequence (O75762 whole entry): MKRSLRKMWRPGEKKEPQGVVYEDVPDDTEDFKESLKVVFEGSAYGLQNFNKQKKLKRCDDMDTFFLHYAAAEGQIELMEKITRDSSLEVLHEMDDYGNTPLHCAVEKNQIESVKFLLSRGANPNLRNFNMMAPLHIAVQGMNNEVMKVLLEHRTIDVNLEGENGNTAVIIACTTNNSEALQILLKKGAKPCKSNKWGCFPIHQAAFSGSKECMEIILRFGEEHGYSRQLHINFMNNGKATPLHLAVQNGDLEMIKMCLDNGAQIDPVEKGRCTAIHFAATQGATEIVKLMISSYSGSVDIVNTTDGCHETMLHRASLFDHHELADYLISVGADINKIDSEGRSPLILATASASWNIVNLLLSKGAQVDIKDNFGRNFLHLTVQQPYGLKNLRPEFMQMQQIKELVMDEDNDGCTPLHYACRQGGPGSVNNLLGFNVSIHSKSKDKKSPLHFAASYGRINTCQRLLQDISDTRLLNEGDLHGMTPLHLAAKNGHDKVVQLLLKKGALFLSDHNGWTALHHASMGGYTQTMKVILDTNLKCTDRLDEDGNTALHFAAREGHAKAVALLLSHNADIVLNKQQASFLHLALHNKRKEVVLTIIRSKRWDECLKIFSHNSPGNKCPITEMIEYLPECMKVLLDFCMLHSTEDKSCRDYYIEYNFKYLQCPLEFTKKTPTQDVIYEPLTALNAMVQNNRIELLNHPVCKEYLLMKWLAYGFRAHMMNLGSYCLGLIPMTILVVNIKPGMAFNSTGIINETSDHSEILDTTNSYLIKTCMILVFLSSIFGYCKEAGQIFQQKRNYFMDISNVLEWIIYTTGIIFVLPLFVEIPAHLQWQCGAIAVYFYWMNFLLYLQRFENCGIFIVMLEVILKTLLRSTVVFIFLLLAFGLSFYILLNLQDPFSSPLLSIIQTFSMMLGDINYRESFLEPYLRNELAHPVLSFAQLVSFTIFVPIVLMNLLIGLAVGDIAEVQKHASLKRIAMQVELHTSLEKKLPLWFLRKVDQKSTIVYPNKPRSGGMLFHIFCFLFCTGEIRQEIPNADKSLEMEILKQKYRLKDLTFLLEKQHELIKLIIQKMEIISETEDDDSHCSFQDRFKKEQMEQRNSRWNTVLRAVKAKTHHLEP

For `CCCCC/C=C\C/C=C\C/C=C\CCCCC(=O)NCCO` [γ-LEA, γ-linolenoyl ethanolamide], the “Elevation of [Ca]i in HEK-293 TRPV1 cells compared with HEK-293 EV cells” value (human TRPV1; 10 µM) was “significantly greater”, the “Change of Ca5 fluorescence, Mean ± SEM, TRPV1 (10 µM)” value (human TRPV1; 10 µM, HEK-293 TRPV1 cells, percentage of predrug baseline) was 277 ± 67 % and the “Maximal TRPV1 response compared with the highest concentration of capsaicin” value (human TRPV1; 30 µM vs capsaicin 10 µM) was “did not differ”. For the same compound, the “TRPV1 response, Mean± SEM (N)” value (human TRPV1; 30 µM, one-way ANOVA comparison with capsaicin 10 µM) was 354± 56, the “Emax ± SEM % TRPV1 (30 µM)” value (human TRPV1; highest tested concentration (30 µM) or derived from concentration-response curves (DHEA, AEA, NADA, capsaicin)) was 354 ± 39% and the “Change in Ca5 fluorescence, individual experiments (CRC raw data)” value (“Change in Ca5 fluorescence … (CRC raw data)” below) (human TRPV1; log concentration -4.52288 (M)) was 350.183 and 323.986 and 542.155 and 300.489 and 279.486 and 328.331. The “Change in Ca5 fluorescence … (CRC raw data)” value (human TRPV1; log concentration -5 (M)) was 408.892 and 291.398 and 513.101 and 87.8703 and 117.804 and 243.201, the “Change in Ca5 fluorescence … (CRC raw data)” value (human TRPV1; log concentration -5.52288 (M)) was 21.7947 and 80.3389 and 37.6766 and 7.854 and 2.348 and 95.5783 and the “Change in Ca5 fluorescence … (CRC raw data)” value (human TRPV1; log concentration -6 (M)) was 179.174 and 9.167 and 5.6781 and 5.979 and 3.41 and 2.934. The “Change in Ca5 fluorescence … (CRC raw data)” value (human TRPV1; log concentration -6.52288 (M)) was 5.188 and 2.355 and 8.6025 and 1.698 and 1.3988 and 2.387, the “Change in Ca5 fluorescence … (CRC raw data)” value (human TRPV1; log concentration -7 (M)) was 0.9319 and 4.487 and 3.741 and 0.8649 and 0.1851 and 3.24 and the “Elevation of [Ca]i in HEK-293 TRPA1 cells compared with HEK-293 EV cells” value (human TRPA1; 10 µM (cinnamaldehyde 300 µM)) was “significantly greater”. For the same compound, the “Change of Ca5 fluorescence, Mean ± SEM, TRPA1 (10 µM)” value (human TRPA1; 10 µM, HEK-293 TRPA1 cells, percentage of predrug baseline) was 87 ± 32 %, the “TRPA1 activation at the highest concentration tested” value (human TRPA1; 30 µM) was “activated TRPA1” and the “TRPA1 response compared with the highest concentration of cinnamaldehyde (300 µM)” value (human TRPA1; 30 µM) was “did not differ”. For the same compound, the “TRPA1 response, Mean± SEM (N)” value (human TRPA1; 30 µM, one-way ANOVA comparison with cinnamaldehyde 300 µM) was 311 ± 60, the “Emax ± SEM % TRPA1 (30 µM)” value (human TRPA1; highest tested concentration (30 µM) or derived from concentration-response curves (cinnamaldehyde)) was 311 ± 11% and the “Change in Ca5 fluorescence … (CRC raw data)” value (human TRPA1; log concentration -4.52288 (M)) was 346.049 and 274.809 and 332.645 and 317.863 and 295.869 and 300.839. The “Change in Ca5 fluorescence … (CRC raw data)” value (human TRPA1; log concentration -5 (M)) was 11.624 and 8.016 and 83.7476 and 222.133 and 100.409 and 97.3092, the “Change in Ca5 fluorescence … (CRC raw data)” value (human TRPA1; log concentration -5.52288 (M)) was 5.237 and 1.372 and 11.2552 and 5.494 and 2.231 and 27.0912 and the “Change in Ca5 fluorescence … (CRC raw data)” value (human TRPA1; log concentration -6 (M)) was 2.963 and 1.112 and 12.1911 and 2.48 and 2.092 and 1.749. The “Change in Ca5 fluorescence … (CRC raw data)” value (human TRPA1; log concentration -6.52288 (M)) was 0.5786 and 1.167 and 6.112 and 4.171 and 1.807 and 1.825, the “Change in Ca5 fluorescence … (CRC raw data)” value (human TRPA1; log concentration -7 (M)) was 0.7736 and 1.971 and 6.385 and 5.071 and 2.235 and 0.6536 and the “Change of Ca5 fluorescence, Mean ± SEM, EV (10 µM)” value (HEK-293 EV cells) was 11 ± 2%.
For `C[C@H](CCC(=O)O)C[C@H](C)C[C@H](C)C(=O)/C=C(\O)[C@H](C)C[C@H](C)C/C=C/[C@@H](C)[C@@H](O)[C@@H](C)[C@@H](O)C[C@@H]1CC[C@@](C)([C@H]2CC[C@@](C)([C@@H](C)O)O2)O1` [Ionomycin, ionomycin, reference compound], the “Change in Ca5 fluorescence” value (human TRPV1; 5 µM, HEK-293 TRPV1 cells, dye saturation control) was 673 ± 25%.
